For twelve compounds, melting point and IC50 results are on record in patent publication US6998415B2, “Substituted sulfonylphenylheterocycles as cyclooxygenase-2 and 5-lipoxygenase inhibitors” (Pharmacia Corporation, priority 1996, dated 2006).

One data set has as its target COX-1 (UniProt P23219). The data set can be described thus: Assay for COX-1 activity in vitro (PGE2 ELISA, recombinant enzyme). The class given is biochemical, human or murine. Conditions: recombinant COX-1, arachidonic acid 10 μM, pre-incubation 10–20 minutes. The procedure:
Evaluation of COX-1 and COX-2 Activity in vitro a. Preparation of Recombinant COX Baculoviruses
(§1) Recombinant COX-1 and COX-2 were prepared as described by Gierse et al, [J. Biochem., 305, 479–84 (1995)]. A 2.0 kb fragment containing the coding region of either human or murine COX-1 or human or murine COX-2 was cloned into a BamHI site of the baculovirus transfer vector pVL1393 (Invitrogen) to generate the baculovirus transfer vectors for COX-1 and COX-2 in a manner similar to the method of D. R. O'Reilly et al (Baculovirus Expression Vectors: A Laboratory Manual (1992)). Recombinant baculoviruses were isolated by transfecting 4 μg of baculovirus transfer vector DNA into SF9 insect cells (2×10^8) along with 200 ng of linearized baculovirus plasmid DNA by the calcium phosphate method. See M. D. Summers and G. E. Smith, A Manual of Methods for Baculovirus Vectors and Insect Cell Culture Procedures, Texas Agric. Exp. Station Bull. 1555 (1987). Recombinant viruses were purified by three rounds of plaque purification and high titer (10^7–10^8 pfu/ml) stocks of virus were prepared. For large scale production, SF9 insect cells were infected in 10 liter fermentors (0.5×10^6/ml) with the recombinant baculovirus stock such that the multiplicity of infection was 0.1. After 72 hours the cells were centrifuged and the cell pellet homogenized in Tris/Sucrose (50 mM: 25%, pH 8.0) containing 1% 3-[(3-cholamidopropyl)dimethylammonio]-1-propanesulfonate (CHAPS). The homogenate was centrifuged at 10,000×G for 30 minutes, and the resultant supernatant was stored at −80° C. before being assayed for COX activity. […]
(§2) b. Assay for COX-1 and COX-2 Activity
(§3) COX activity was assayed as PGE2 formed/μg protein/time using an ELISA to detect the prostaglandin released. CHAPS-solubilized insect cell membranes containing the appropriate COX enzyme were incubated in a potassium phosphate buffer (50 mM, pH 8.0) containing epinephrine, phenol, and heme with the addition of arachidonic acid (10 μM). Compounds were pre-incubated with the enzyme for 10–20 minutes prior to the addition of arachidonic acid. Any reaction between the arachidonic acid and the enzyme was stopped after ten minutes at 37° C./room temperature by transferring 40 μl of reaction mix into 160 μl ELISA buffer and 25 μM indomethacin. The PGE2 formed was measured by standard ELISA technology (Cayman Chemical).

The target in the next data set is T1, COX-2 (UniProt P35354).
T1 sequence (P35354 1-604): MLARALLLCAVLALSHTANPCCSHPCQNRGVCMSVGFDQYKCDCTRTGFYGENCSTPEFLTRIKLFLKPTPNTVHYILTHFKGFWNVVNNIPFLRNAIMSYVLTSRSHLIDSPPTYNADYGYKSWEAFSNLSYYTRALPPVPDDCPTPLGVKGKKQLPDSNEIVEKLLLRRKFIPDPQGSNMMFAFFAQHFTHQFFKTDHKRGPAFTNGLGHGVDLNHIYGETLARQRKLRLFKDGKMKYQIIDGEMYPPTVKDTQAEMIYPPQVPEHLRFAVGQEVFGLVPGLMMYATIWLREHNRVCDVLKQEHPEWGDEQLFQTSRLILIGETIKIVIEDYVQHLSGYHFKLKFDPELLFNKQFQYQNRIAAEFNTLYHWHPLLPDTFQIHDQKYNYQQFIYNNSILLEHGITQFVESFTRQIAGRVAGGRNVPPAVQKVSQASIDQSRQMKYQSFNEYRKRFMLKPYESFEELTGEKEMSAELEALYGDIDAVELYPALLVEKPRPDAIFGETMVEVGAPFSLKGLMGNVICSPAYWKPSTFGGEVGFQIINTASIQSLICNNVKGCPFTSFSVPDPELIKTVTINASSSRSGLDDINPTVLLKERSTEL
Kind of data set: Assay for COX-2 activity in vitro (PGE2 ELISA, recombinant enzyme). It counts as biochemical, human or murine. Conditions: recombinant COX-2, arachidonic acid 10 μM, pre-incubation 10–20 minutes. The procedure:
Evaluation of COX-1 and COX-2 Activity in vitro
The COX-2 inhibit on activity of the compounds or this invention illustrated in the Examples was determined by the following methods. a. Preparation of Recombinant COX Baculoviruses
as §1, §2, §3
Background: ELISA stands for enzyme-linked immunosorbent assay.

For the next data set, the target named is T2, 5-lipoxygenase (5-LO) (Homo sapiens, UniProt P09917).
T2 construct: calcium ionophore-induced Leukotriene B4 (LTB4) production in human whole blood; endogenous in cells; host or cells: human whole blood (healthy donors), diluted 1:4 in RPMI 1640
T2 sequence (P09917 1-674): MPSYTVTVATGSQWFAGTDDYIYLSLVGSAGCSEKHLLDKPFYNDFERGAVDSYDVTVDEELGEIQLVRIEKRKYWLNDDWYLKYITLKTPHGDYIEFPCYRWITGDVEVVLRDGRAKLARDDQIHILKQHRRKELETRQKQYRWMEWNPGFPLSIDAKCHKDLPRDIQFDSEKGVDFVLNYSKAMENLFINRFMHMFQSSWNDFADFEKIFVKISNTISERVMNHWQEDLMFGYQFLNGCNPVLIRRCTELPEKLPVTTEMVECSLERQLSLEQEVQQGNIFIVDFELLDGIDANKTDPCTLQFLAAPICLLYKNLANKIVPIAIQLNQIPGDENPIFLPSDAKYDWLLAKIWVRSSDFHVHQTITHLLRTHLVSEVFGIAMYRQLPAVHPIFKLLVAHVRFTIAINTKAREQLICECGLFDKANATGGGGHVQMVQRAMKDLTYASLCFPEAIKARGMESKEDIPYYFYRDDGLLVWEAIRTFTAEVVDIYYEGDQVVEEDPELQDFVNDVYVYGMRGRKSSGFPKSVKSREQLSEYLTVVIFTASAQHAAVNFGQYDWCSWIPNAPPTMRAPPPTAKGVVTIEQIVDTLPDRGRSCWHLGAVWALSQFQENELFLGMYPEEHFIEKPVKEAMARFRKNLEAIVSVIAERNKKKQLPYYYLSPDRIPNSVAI
Kind of data set: Assay for 5-lipoxygenase activity: calcium ionophore-induced LTB4 production in human whole blood. The class given is cell-based. The following applies: A-23187 (20 μg/ml)-induced LTB4 in human whole blood; mean IC50. The procedure:
Assay for 5-Lipoxygenase Activity
The 5-lipoxygenase (5-LO) activity of the compounds were determined by the calcium ionophore-induced Leukotriene B4 (LTB4) production in human whole blood. Venous blood was collected from healthy human donors using heparin as an anti-coagulant. Human blood samples (0.2 ml of a 1:4 dilution in RPMI 1640 medium) were incubated in 96-well culture plates for 15 minutes at 37° C. with test compounds dissolved in ethanol (EtOH; final concentration<1%), or vehicle. Typically 7 concentrations of test compounds were examined in duplicate. A-23187 [Sigma] was added to the blood to a final concentration of 20 μg/ml, and the mixtures were incubated for 10 minutes at 37° C. The reaction was stopped by placing the samples on ice. The samples were then centrifuged at 800×g at 4° C. for 10 minutes to pellet the cells, and the supernatants were recovered for quantitation of LTB4 by LISA (Cayman Chemical Co.; sensitivity 3 pg/ml). IC50's were estimated from a four parameter logistic model with two parameters fixed, the minimum (0% inhibition) and maximum (100% inhibition). The IC50 value is the concentration that produces 50% inhibition between the fixed values of the minimum and maximum. Data is reported as the mean IC50 for each compound.

SMILES strings stand for the structures.

With `COC1(c2cccc(Oc3nc(-c4ccccc4)c(-c4ccc(S(N)(=O)=O)cc4)o3)c2)CCOCC1` [Example 5, 4-[2-[3-(4-Methoxy-3,4,5,6-tetrahydro-2H-pyran-4-yl)phenoxy]-4-phenyl-5-oxazolyl]benzenesulfonamide], the melting point (as a rule, the temperature of the solid-liquid transition) is 145 to 147 °C. The half-maximal inhibitory concentration (IC50) (as a rule, the midpoint of a concentration-inhibition curve) on COX-1 is below 100 nM. In addition, the IC50 at COX-2 was below 100 nM. Moreover, on 5-lipoxygenase (5-LO), the IC50 came out at 17000 nM.

As to `COC1(c2cc(F)cc(OCc3onc(-c4ccccc4)c3-c3ccc(S(N)(=O)=O)cc3)c2)CCOCC1` [Example 16, 4-[5-[[3-Fluoro-5-(3,4,5,6-tetrahydro-4-methoxypyran-4-yl)phenoxy]methyl]-3-phenylisoxazol-4-yl]benzenesulfonamide], the results for the IC50 on COX-1, at COX-2 and at 5-lipoxygenase (5-LO) were above 100000 nM, below 100 nM and above 10000 nM, respectively.

For the compound `COC1(c2cccc(OCc3nc(-c4ccc(F)cc4)c(-c4ccc(S(C)(=O)=O)cc4)o3)c2)CCOCC1` [Example 2, 4-(4-Fluorophenyl)-5-(4-(methylsulfonyl)phenyl)-2-[[3-(3,4,5,6-tetrahydro-4-methoxy-2H-pyran-4-yl)phenoxy]methyl]oxazole], the IC50 was above 10000 nM on COX-1, 200 nM on COX-2 and 50 nM on 5-lipoxygenase (5-LO).

As for `COc1cccc(SCc2cc(-c3ccc(Cl)cc3)n(-c3ccc(S(N)(=O)=O)cc3)n2)c1` [Example 6, 4-[5-(4-Chlorophenyl)-3-(3-methoxyphenyl)thiomethyl-1H pyrazol-1-yl]benzenesulfonamide], the IC50 on COX-1 is 2200 nM; on COX-2, below 100 nM; on 5-lipoxygenase (5-LO), 440 nM.

As for `COC1(c2cc(F)cc(OCc3nc(-c4ccccc4)c(-c4ccc(S(N)(=O)=O)cc4)o3)c2)CCOCC1` [Example 8, 4-[2-[[3-Fluoro-5-(3,4,5,6-tetrahydro-4-methoxypyran-4-yl)phenoxy]methyl]-4-phenyloxazol-5-yl]benzenesulfonamide], the melting point lay in the range of 70 to 80 °C. The IC50 on COX-1 was determined as 1300 nM. For the same compound, at COX-2, the IC50 is below 100 nM. The 50% inhibitory concentration (IC50) on 5-lipoxygenase (5-LO) stood at 300 nM.

With `COC1(c2cc(F)cc(OCC#Cc3ccc(Cc4nc(-c5ccccc5)c(-c5ccc(S(N)(=O)=O)cc5)o4)cc3)c2)CCOCC1` [Example 12, 4-[2-[[4-[3-[3-Fluoro-5-(3,4,5,6-tetrahydro-4-methoxypyran-4-yl)phenoxy]-1-propynyl]phenyl]methyl]-4-phenyloxazol-5-yl]benzenesulfonamide], the melting point fell in the range of 86 to 100 °C. Also, the IC50 on COX-1 is above 100000 nM. The concentration for half-maximal inhibition (IC50) at COX-2 is below 100 nM. The IC50 at 5-lipoxygenase (5-LO) was above 10000 nM.

The compound `COC1(c2cccc(CSCc3nc(-c4ccccc4)c(-c4ccc(S(N)(=O)=O)cc4)o3)c2)CCOCC1` [Example 18, 4-[2-[[[3-(3,4,5,6-Tetrahydro-4-methoxypyran-4-yl)phenylmethyl]thio]methyl]-4-phenyloxazol-5-yl]benzenesulfonamide] came in with a melting point of 77.2 to 81.7 °C.

For `COc1cccc(OCc2cc(-c3ccc(Cl)cc3)n(-c3ccc(S(N)(=O)=O)cc3)n2)c1` [Example 7, 4-[5-(4-Chlorophenyl)-3-(3-methoxyphenyl)oxymethyl-1H-pyrazol-1-yl]benzenesulfonamide], the IC50 on COX-1 was 3800 nM; on COX-2, below 100 nM; at 5-lipoxygenase (5-LO), 650 nM.

`COC1(c2cc(F)cc(Oc3nc(-c4ccccc4)c(-c4ccc(S(N)(=O)=O)cc4)o3)c2)CCOCC1` [Example 4, 4-[2-[3-Fluoro-5-(4-methoxy-3,4,5,6-tetrahydro-2H-pyran-4-yl)phenoxy]-4-phenyl-5-oxazolyl]benzenesulfonamide] registered a melting point of 159 to 161 °C. Further, the IC50 at COX-1 is below 100 nM. Further, the IC50 on COX-2 is below 100 nM. The IC50 at 5-lipoxygenase (5-LO) turned out to be 14000 nM.

Compound `COC(=O)C(Cc1cccc(C2(OC)CCOCC2)c1)c1nc(-c2ccccc2)c(-c2ccc(S(N)(=O)=O)cc2)o1` (stereo not drawn) [Example 9, Methyl 5-[4-(aminosulfonyl)phenyl]-α-[[3-(3,4,5,6-tetrahydro-4-methoxypyran-4-yl)phenyl]methyl]-4-phenyloxazole-2-acetate] came in with a melting point of 88.7 to 94.9 °C. In addition, at COX-1, the IC50 was 80000 nM. In addition, the IC50 on COX-2 was found to be 10000 nM. In addition, the IC50 at 5-lipoxygenase (5-LO) is above 10000 nM.

As for `COC1(c2cc(F)cc(OCc3cc(-c4ccc(Cl)cc4)n(-c4ccc(S(N)(=O)=O)cc4)n3)c2)CCOCC1` [Example 1, 4-[5-(4-Chlorophenyl)-3-[[3-fluoro-5-(3,4,5,6-tetrahydro-4-methoxy-2H-pyran-4-yl)phenoxy]methyl]-1H-pyrazol-1-yl]benzenesulfonamide], the IC50 on COX-1 was 38000 nM; on COX-2, below 100 nM; at 5-lipoxygenase (5-LO), 150 nM.

In the case of `COC1(c2cc(F)cc(OCC(=O)NCCc3nc(-c4ccccc4)c(-c4ccc(S(N)(=O)=O)cc4)o3)c2)CCOCC1` [Example 22], the IC50 is above 100000 nM on COX-1, 1100 nM at COX-2 and above 10000 nM at 5-lipoxygenase (5-LO).
